# “And” between values parts separate entries of the source, which are not always exact repeats. Equal values may be shown once.
# Legend:
# [1] = system: H9C2 cells; assay: Confocal microscopy uptake in H9C2 (Example 2); format: cell-based, rat; conditions: 5 μM, 24 h
# Experimental: Confocal Microscopy. MDA-MB-231, SK-OV-3, MES-SA/MX2, and H9C2 cells (7×10^4 cells/well) were seeded with a medium on a coverslip 24 h prior to the experiment in six well plates. After 24 h, the medium was changed with opti-MEM. The cells were treated with Dox and peptide-Dox conjugate (5 μM) in opti-MEM for 24 h. After 24 h incubation, the media were removed, and cells were washed three times with PBS in each well. Then, the cells were fixed with 3.7% formaldehyde for 10 min, followed by washing three times with PBS (pH 7.6) for 5 min. DAPI (40 μL) for staining the nuclei was placed on a microscope slide, and it was covered with the coverslip with the cell-attached side facing down. The slides were left standing horizontally in a dark place with airflow to allow faster drying. The cells were photographed using Nikon Instruments A1 Confocal Laser Microscope Series and NIS-Elements software (AR 4.30.02, 64 bit). The scan mode was selected as Galvano. The magnification and resolution were set at 40× and 1024, respectively.
# [2] = system: MCF-7 cells; assay: MTS cytotoxicity assay of [(WR)8WKβA]-Dox, MCF-7; format: cell-based; conditions: 5 μM
# Experimental: (§1) Cytotoxic activity of the synthesized conjugate and noncovalent mixtures of cyclic [WR]9+Dox was determined in SK-OV-3, MDA-MB-231, MCF-7, MES-SA/MX2, and H9C2 cells. […] An appropriate growth medium was used for each cell line (for SK-OV-3: McCoy's […] with L-glutamine containing fetal bovine serum (FBS) (10%) and penicillin or streptomycin (1%); for MDA-MB-231 and MCF-7 cells: DMEM/F12 (1:1) (1×) with L-Glutamine and 15 mM HEPES containing FBS (10%) and penicillin or streptomycin (1%), and for MES-SA/MX2 and H9C2 cells: Minimum Essential Medium Eagle with Earle's salts and sodium bicarbonate, without L-glutamine containing FBS (10%), and penicillin or streptomycin (1%)). The cells were seeded in a complete growth medium 24 h prior to the experiment. […] The incubation was continued for 3 h.
# [3] = system: uterine sarcoma cells (MES-SA/MX2); conditions: 5 μM
# Experimental: (§2) In Vitro Cytotoxicity Assay of Peptide-Drug Conjugates. […] In brief, CCRF-CEM cells were seeded at 50,000 cells in 0.1 mL per well in 98-well plates. In the case of other cell lines, the cells were seeded at 5,000 cells (0.1 mL per well in 96-well plates). […] Dox (5 μM) was used as a positive control, while water and cell culture medium were used as negative controls. The compounds were dissolved in water; water was used as a negative control to normalize the data. After the incubation period, MTS reagent (20 μL) was added to each well. The incubation was continued for 2 h. Cell viability was then determined by determination of the fluorescence intensity at 490 nm using a SpectraMax M2 microplate spectrophotometer. The percentage of cell viability was then calculated using the following equation: [(OD value of cells treated with the compound)−(OD value of culture medium)]/[(OD value of control cells)−(OD value of culture medium)]×100% (FIGS. 6-9).
# [4] = system: SK-OV-3 cells; assay: MTS cytotoxicity assay of [(WR)8WKβA]-Dox, SK-OV-3; conditions: 5 μM, 72 h
# Experimental: as §1
# [5] = system: LLC-PK1 kidney cells; assay: Cytotoxicity, MTS assay, normal kidney cells; conditions: 5 μM
# Experimental: In Vitro Cytotoxicity Assay of Peptide-Drug Conjugates. The cytotoxicity of the compounds was determined by using human leukemia cell line (CCRF-CEM), human ovarian adenocarcinoma cells (SKOV-3) cells, kidney cell line (LLC-PK1), gastric adenocarcinoma cells (AGS), and heart/myocardium cells (H9C2) to evaluate the toxicity of the generated peptides according to a previously reported procedure (Rahman, A.; et al. Proc. Am. Assoc. Cancer Res. 26:2295-2299, 1985, which is incorporated herein by reference). In brief, CCRF-CEM cells were seeded at 50,000 cells in 0.1 mL per well in 98-well plates. In the case of other cell lines, the cells were seeded at 5,000 cells (0.1 mL per well in 96-well plates). The cells were seeded in medium (RPMI-1640 containing FBS (10%)), 24 h prior to the experiment. The compounds at different concentrations (10-50 μM) were added to each well in triplicate and incubated for 24 and 72 h at 37° C. in a humidified atmosphere of 5% CO2. Dox (5 μM) was used as a positive control, while water and cell culture medium were used as negative controls. The compounds were dissolved in water; water was used as a negative control to normalize the data. After the incubation period, MTS reagent (20 μL) was added to each well. The incubation was continued for 2 h. Cell viability was then determined by determination of the fluorescence intensity at 490 nm using a SpectraMax M2 microplate spectrophotometer.
# [6] = system: SK-OV-3 cells; assay: Cytotoxicity, MTS cell viability assay, SK-OV-3 (Example 1)
# Experimental: as §2
# [7] = system: H9C2 cells; assay: Fluorescence/confocal microscopy uptake in heart cells (Example 1); format: cell-based, rat; conditions: 5 μM
# Experimental: Fluorescence and Confocal Microscopy. CCRF-CEM, SKOV-3, and H9C2 cells were seeded with EMEM media overnight on coverslips in six-well plates. Then the medium was removed and washed with opti-MEM. The cells were treated with Dox and the peptide-Dox conjugate (5 μM) in opti-MEM for different time intervals (3, 24, and 72 h) at 37° C. After 3 h incubation, the media containing the compound were removed, followed by washing with PBS three times. Then coverslips were placed on a drop of mounting medium on a microscope slide with the cell-attached side facing down. Fluorescence microscopy and laser scanning confocal microscopy were carried out using a Keyence Microscope System and Nikon AIR system, respectively. The cells were imaged using rhodamine and phase contrast channels.
# In a separate experiment, confocal microscopy was used as follows. (i) Internalization of [R5K]W7A-Dox conjugate vs. free Dox was determined in Dox-resistant MDA-MB-231 and ME5-SA/MX2 cells as compared to the wild-type MDA-MB-231 cells. The cellular internalization was evaluated in Dox-sensitive and -resistant cells to study the effect of overexpression of the MDR efflux proteins on the Dox internalization by the peptide conjugates. […] (ii) Internalization of Dox and [R5K]W7A-Dox was determined into normal heart muscle cells. […]
# [8] = system: MDA-MB-231 cells; assay: MTS cytotoxicity assay of [(WR)8WKβA]-Dox, MDA-MB-231; conditions: 5 μM
# Experimental: as §1
smiles,measurement,setting,value
"COc1cccc2c1C(=O)c1c(O)c3c(c(O)c1C2=O)C[C@@](O)(C(=O)CO)C[C@@H]3O[C@H]1C[C@H](N)[C@H](O)[C@H](C)O1 [Dox, doxorubicin, reference compound]","uptake in heart cells (confocal microscopy, words)",[1],high uptake
same,reduction of cell proliferation,[2]; 24 h,21%
same,reduction of cell proliferation,[2]; 72 h,57%
same,Cell Viability (%) after 72 h,[3],119 ± 5%
same,toxicity,[3]; 72 h,did not show any toxicity
same,reduction of cell viability / inhibition of proliferation,[4],35%
same,reduction of cell survival,"[5]; LLC-PK1, 24 h",64%
same,reduction of cell survival,"[5]; LLC-PK1, 72 h",77%
same,reduction of viability of kidney cells,"[5]; LLC-PK1, time not stated",85%
same,Cell Viability (%) after 24 h,[5]; normal kidney LLC-PK1,44 ± 0% and 48 ± 2%
same,Cell Viability (%) after 24 h,[6]; 5 μM,73 ± 2%
same,Cell Viability (%) after 72 h,[6]; 5 μM,67 ± 3%
same,reduction of cell survival/viability,"[6]; 5 μM, 24 h",27% and 30%
same,reduction of cell survival/viability,"[6]; 5 μM, 72 h",33%
same,Cell Viability (%) after 24 h,[6]; 10 μM,71 ± 3%
same,Cell Viability (%) after 72 h,[6]; 10 μM,64 ± 1%
same,cytotoxicity,[6]; Dox alone 5 and 10 μM,27-36%
same,"uptake in heart cells (microscopy, words)",[7],significant uptake
same,cell viability,[8]; 24 h,79%
same,cell viability,[8]; 72 h,37%
same,inhibition of cell viability/proliferation,[8]; 72 h,63%
